Assay [1] addresses human orexin-2 receptor (Homo sapiens (Human), UniProt O43614). The experiment in a line: FLIPR Ca2+ Flux Assay, CHO cells expressing orexin-2 receptor. In kind it is cell-based. The settings on record: 70 pM Ala-6,12 orexin-A agonist, read-out: hOX2R FLIPR IC50. Here is the method: The utility of the compounds in accordance with the present invention as orexin receptor OX1R and/or OX2R antagonists may be readily determined without undue experimentation by methodology well known in the art, including the “FLIPR Ca^2+ Flux Assay” (Okumura et al., Biochem. Biophys. Res. Comm. 280:976-981, 2001). In a typical experiment the OX1 and OX2 receptor antagonistic activity of the compounds of the present invention was determined in accordance with the following experimental method. For intracellular calcium measurements, Chinese hamster ovary (CHO) cells expressing the rat orexin-1 receptor or the human orexin-2 receptor, are grown in Iscove's modified DMEM containing 2 mM L-glutamine, […], 1% hypoxanthine-thymidine supplement, 100 U/ml penicillin, 100 μg/ml streptomycin and 10% heat-inactivated fetal calf serum (FCS). The cells are seeded at 20,000 cells/well into Becton-Dickinson black 384-well clear bottom sterile plates coated with poly-D-lysine. All reagents were from GIBCO-Invitrogen Corp. The seeded plates are incubated overnight at 37° C. and 5% CO2. Ala-6,12 human orexin-A as the agonist is prepared as a 1 mM stock solution in 1% bovine serum albumin (BSA) and diluted in assay buffer (HBSS containing 20 mM HEPES, 0.1% BSA and 2.5 mM probenecid, pH7.4) for use in the assay at a final concentration of 70 pM. Test compounds are prepared as 10 mM stock solution in DMSO, then diluted in 384-well plates, first in DMSO, then assay buffer. On the day of the assay, cells are washed 3 times with 100 μl assay buffer and then incubated for 60 min (37° C., 5% CO2) in 60 μl assay buffer containing 1 μM Fluo-4AM ester, 0.02% pluronic acid, and 1% BSA. The dye loading solution is then aspirated and cells are washed 3 times with 100 μl assay buffer. 30 μl of that same buffer is left in each well. Within the Fluorescent Imaging Plate Reader (FLIPR, Molecular Devices), test compounds are added to the plate in a volume of 25 μl, incubated for 5 min and finally 25 μl of agonist is added. Fluorescence is measured for each well at 1 second intervals for 5 minutes and the height of each fluorescence peak is compared to the height of the fluorescence peak induced by 70 pM Ala-6,12 orexin-A with buffer in place of antagonist. For each antagonist, IC50 value (the concentration of compound needed to inhibit 50% of the agonist response) is determined. Alternatively, compound potency can be assessed by a radioligand binding assay (described in Bergman et. al. Bioorg. Med. Chem. Lett. 2008, 18, 1425-1430) in which the inhibition constant (Ki) is determined in membranes prepared from CHO cells expressing either the OX1 or OX2 receptor. The intrinsic orexin receptor antagonist activity of a compound which may be used in the present invention may be determined by these assays.
On the technique in general: Calcium assays in cells follow changes in intracellular calcium, usually with a dye or a luminescent sensor.

In assay [2] the target is hOX1R (Homo sapiens, UniProt O43613). The experiment in a line: FLIPR Ca2+ Flux Assay, CHO cells expressing orexin-1 receptor. In kind it is cell-based. As to conditions: 70 pM Ala-6,12 orexin-A agonist.

Structures are written as SMILES.

Chain of human orexin-2 receptor (O43614 whole entry): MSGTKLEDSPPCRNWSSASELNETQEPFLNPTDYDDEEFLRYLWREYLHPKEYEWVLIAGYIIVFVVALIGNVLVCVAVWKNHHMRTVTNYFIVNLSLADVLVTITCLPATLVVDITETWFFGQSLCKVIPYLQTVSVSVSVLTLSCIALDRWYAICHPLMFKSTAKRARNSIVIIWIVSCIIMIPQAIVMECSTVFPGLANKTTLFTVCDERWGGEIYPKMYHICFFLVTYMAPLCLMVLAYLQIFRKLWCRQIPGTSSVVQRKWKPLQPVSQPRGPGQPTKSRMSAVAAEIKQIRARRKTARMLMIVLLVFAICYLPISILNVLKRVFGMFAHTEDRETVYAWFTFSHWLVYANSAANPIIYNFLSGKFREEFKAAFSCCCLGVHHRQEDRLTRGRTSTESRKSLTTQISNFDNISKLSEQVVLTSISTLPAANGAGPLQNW

For the molecule `C[C@@H]1CC[C@@H](Oc2nccc3c2C(=O)OC3(C)C)CN1C(=O)c1ccccc1-c1ncccn1` [Example 22, 1,1-Dimethyl-4-{[(3R,6R)-6-methyl-1-{[2-(pyrimidin-2-yl)phenyl]carbonyl}piperidin-3-yl]oxy}furo[3,4-c]pyridin-3(1H)-one], the half-maximal inhibitory concentration (IC50) was determined as 76 nM in assay [1] and 3260 nM in assay [2].
The like results for `Cc1cccc(C(=O)N2C[C@H](Oc3nccc4c3C(=O)OC4(C)C)CC[C@H]2C)c1-n1nccn1` [Example 8, 1,1-dimethyl-4-{[(3R,6R)-6-methyl-1-{[3-methyl-2-(2H-1,2,3-triazol-2-yl)phenyl]carbonyl}piperidin-3-yl]oxy}furo[3,4-c]pyridin-3(1H)-one] were, in that order, 43 nM and 3090 nM.
As to `C[C@@H]1CC[C@@H](Oc2nccc3c2C(=O)OC3(C)C)CN1C(=O)c1c(F)cccc1-n1nccn1` [Example 6, 4-(((3R,6R)-1-(2-fluoro-6-(2H-1,2,3-triazol-2-yl)benzoyl)-6-methylpiperidin-3-yl)oxy)-1,1-dimethylfuro[3,4-c]pyridin-3(1H)-one], the values for the IC50 in assay [1] and in assay [2] were 13 nM and 2710 nM, respectively.
`C[C@@H]1CC[C@@H](Nc2nccc3c2C(=O)OC3(C)C)CN1C(=O)c1ccccc1-n1ncnn1` [Example 41, 1,1-Dimethyl-4-{[(3R,6R)-6-methyl-1-{[2-(2H-tetrazol-2-yl)phenyl]carbonyl}piperidin-3-yl]amino}furo[3,4-c]pyridin-3(1H)-one]: the values for the IC50 in assay [1] and in assay [2] were 15 nM and 10000 nM, respectively.
For the molecule `Cc1nc(-c2c(F)cccc2C(=O)N2C[C@H](Oc3nccc4c3C(=O)OC4(C)C)CC[C@H]2C)no1` [Example 16, 4-{[(3R,6R)-1-{[3-fluoro-2-(5-methyl-1,2,4-oxadiazol-3-yl)phenyl]carbonyl}-6-methylpiperidin-3-yl]oxy}-1,1-dimethylfuro[3,4-c]pyridin-3(1H)-one], the figures for the IC50 in assay [1] and in assay [2] were 90 nM and 10000 nM, respectively.
The matching figures for `C[C@@H]1CC[C@@H](Nc2nccc3c2C(=O)OC3(C)C)CN1C(=O)c1ccsc1-c1ncccn1` [Example 44, 1,1-Dimethyl-4-({(3R,6R)-6-methyl-1-[(2-pyrimidin-2-ylthiophen-3-yl)carbonyl]piperidin-3-yl}amino)furo[3,4-c]pyridin-3(1H)-one]: 28 nM and 1000 nM.
Regarding `C[C@@H]1CC[C@@H](Oc2nccc3c2COC3=O)CN1C(=O)c1ccsc1-c1ncccn1` [Example 37, 4-({(3R,6R)-6-methyl-1-[(2-pyrimidin-2-ylthiophen-3-yl)carbonyl]piperidin-3-yl}oxy)furo[3,4-c]pyridin-1(3H)-one], the IC50 in assay [1] worked out at 27 nM; in assay [2], 6160 nM.
Turning to `Cc1ccc(-n2nccn2)c(C(=O)N2C[C@H](Oc3nccc4c3C(=O)OC4(C)C)CC[C@H]2C)c1` [Example 5, 1,1-dimethyl-4-{[(3R,6R)-6-methyl-1-{[5-methyl-2-(2H-1,2,3-triazol-2-yl)phenyl]carbonyl}piperidin-3-yl]oxy}furo[3,4-c]pyridin-3(1H)-one], the IC50 worked out at 54 nM in assay [1] and 2510 nM in assay [2].

One may read the IC50 as the concentration needed to halve the response being measured.

For the origin of these results see US9556190B2, “Piperidinyloxy lactone orexin receptor antagonists” (MERCK SHARP & DOHME CORP., priority 2013, dated 2017).
